Source: the supplement of paper PMC7661543
± gives the standard deviation of the averaged measurements.

Legend:
Assay in all cases: relative cell number vs DMSO control (72 h) (% of DMSO); higher = less growth inhibition (more cells)
Settings in all cases: sgRNA knockout: sgNT
MDA-MB-231 = tested on: MDA-MB-231
Description: (§1)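 QMAP-Seq: a pool of 5 breast cancer cell lines (ZR-75-1, SKBR3, HCC-38, MDA-MB-231, BT-20), each carrying 12 doxycycline-inducible Cas9 sgRNA perturbations (11 knockouts plus non-targeting sgNT), was treated with compounds for 72 h at four 10-fold doses (10 nM-10 uM or 1 nM-1 uM range). Barcodes were amplified and sequenced, and cell number was interpolated from 293T spike-in standard curves. The result is expressed as % of the median of DMSO wells. Two biological replicates.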

BT-20 = tested on: BT-20
Description: as §1

SKBR3 = tested on: SKBR3
Description: as §1

ZR-75-1 = tested on: ZR-75-1
Description: as §1

HCC-38 = tested on: HCC-38
Description: as §1

Structure (SMILES)	relative cell number (MDA-MB-231; 10 nM)	relative cell number (MDA-MB-231; 100 nM)	relative cell number (MDA-MB-231; 1000 nM)	relative cell number (MDA-MB-231; 10000 nM)	relative cell number (BT-20; 10 nM)	relative cell number (BT-20; 100 nM)	relative cell number (BT-20; 1000 nM)	relative cell number (BT-20; 10000 nM)	relative cell number (SKBR3; 10 nM)	relative cell number (SKBR3; 100 nM)	relative cell number (SKBR3; 1000 nM)	relative cell number (SKBR3; 10000 nM)	relative cell number (ZR-75-1; 10 nM)	relative cell number (ZR-75-1; 100 nM)	relative cell number (ZR-75-1; 1000 nM)	relative cell number (ZR-75-1; 10000 nM)	relative cell number (HCC-38; 10 nM)	relative cell number (HCC-38; 100 nM)	relative cell number (HCC-38; 1000 nM)	relative cell number (HCC-38; 10000 nM)
Cc1ncc([N+](=O)[O-])n1CC(O)CCl (stereo not given) [Ornidazole]	103.6 ± 0.42	108 ± 7.5	74.3 ± 12	138 ± 14	103 ± 7.7	81.8 ± 1.3	96.5 ± 6.5	104 ± 17	70.1 ± 3.7	102 ± 12	91.3 ± 26	104 ± 29	95 ± 18	76.4 ± 24	121 ± 71	84.3 ± 25	84.2 ± 8.7	88.1 ± 7.5	114 ± 19	97.7 ± 13
C=CCc1cccc(/C=N/NC(=O)CN2CCN(Cc3ccccc3)CC2)c1O [PAC1]	104 ± 32	134.14 ± 0.028	109 ± 32	31.7 ± 4.5	92 ± 13	84.1 ± 14	74.6 ± 4.9	45.7 ± 18	68 ± 7	88.5 ± 14	68 ± 27	32.5 ± 11	99.5 ± 9.9	46.5 ± 24	89.6 ± 8.7	12.5 ± 5.5	104 ± 7.8	103 ± 7	90 ± 11	33.9 ± 2.5
Oc1cccc(-c2nc(N3CCOCC3)c3oc4ncccc4c3n2)c1 [PI103]	143 ± 15	126 ± 41	118 ± 15	37.3 ± 11	120 ± 44	124 ± 37	68.7 ± 11	49.7 ± 11	145 ± 47	134 ± 2.6	62.6 ± 31	33.1 ± 2.4	121 ± 13	129 ± 16	58 ± 21	18.9 ± 2.2	118 ± 1.5	111 ± 1.1	85.3 ± 4.5	31.4 ± 2.4
CC(=O)Nc1nc(C)c(-c2ccc(Cl)c(S(=O)(=O)NCCO)c2)s1 [PIK93]	84.5 ± 40	98.2 ± 31	88.6 ± 11	37.5 ± 1.5	106 ± 8.5	104 ± 2.3	98.71 ± 0.17	74 ± 3.9	112 ± 59	66.5 ± 30	94.4 ± 41	51.9 ± 25	128 ± 19	99.2 ± 33	61.1 ± 14	63.8 ± 24	115 ± 21	118 ± 22	80.4 ± 7.5	62.7 ± 7.3
CCCS(=O)(=O)Nc1ccc(F)c(C(=O)c2c[nH]c3ncc(Cl)cc23)c1F [PLX4720]	129.8 ± 0.69	136 ± 62	70.5 ± 9.8	98 ± 3.6	104 ± 12	75.4 ± 11	98.4 ± 7.7	121 ± 32	109 ± 24	105 ± 22	93.3 ± 14	94.8 ± 13	138 ± 42	96.7 ± 15	123 ± 22	173 ± 42	103 ± 13	109 ± 15	110 ± 17	98.3 ± 14
CCC(C)SSc1ncc[nH]1 (stereo not given) [PX12]	104 ± 30	128 ± 20	99.5 ± 25	54.6 ± 0.63	116 ± 7.8	132 ± 1.4	100 ± 4.2	99.6 ± 31	95.4 ± 14	95.5 ± 65	88.8 ± 31	57.7 ± 24	116 ± 19	102 ± 48	69.5 ± 9.5	54.7 ± 25	113 ± 8.1	101 ± 15	93.6 ± 8.6	84.9 ± 8.4
CCOC(=O)c1ccc(N2NC(=O)C(=Cc3ccc([N+](=O)[O-])o3)C2=O)cc1 [PYR41]	133 ± 62	106 ± 11	87.6 ± 62	111 ± 6.8	93.7 ± 24	101 ± 13	103 ± 17	102.7 ± 0.59	106 ± 8.4	83.5 ± 17	98.3 ± 18	64.5 ± 46	125 ± 29	72.9 ± 28	100 ± 1.6	97.4 ± 40	85.8 ± 4.7	89.9 ± 13	101.7 ± 0.8	84.8 ± 5.1
CC(=O)O[C@H]1C(=O)[C@@]2(C)[C@H]([C@H](OC(=O)c3ccccc3)[C@]3(O)C[C@H](OC(=O)[C@H](O)[C@@H](NC(=O)c4ccccc4)c4ccccc4)C(C)=C1C3(C)C)[C@]1(OC(C)=O)CO[C@@H]1C[C@@H]2O [Paclitaxel]	28.8 ± 15	15.6 ± 2.2	21.4 ± 7.8	29.9 ± 10	57.9 ± 10	18.7 ± 15	25.7 ± 9.2	47.3 ± 15	10.2 ± 2.9	6.23 ± 1.4	11.1 ± 1.4	16.4 ± 9.7	28.3 ± 2	18.6 ± 18	21.6 ± 3.9	43.8 ± 17	31.4 ± 5.5	14.4 ± 5.1	18 ± 2.9	25.4 ± 3.6
CC(=O)c1c(C)c2cnc(Nc3ccc(N4CCNCC4)cn3)nc2n(C2CCCC2)c1=O [Palbociclib]	97.3 ± 57	30.6 ± 16	22.5 ± 2.1	22.1 ± 6	87.4 ± 11	41.8 ± 13	45.8 ± 1.1	53.889 ± 0.041	90.3 ± 0.5	52.1 ± 5.9	51.3 ± 4.3	43.8 ± 16	66.5 ± 20	36.6 ± 2.5	30 ± 3.5	29.9 ± 3	74.3 ± 13	37.4 ± 10	44.4 ± 2	42.2 ± 0.9
C=C1C(=O)O[C@H]2[C@H]1CC/C(C)=C/CC[C@@]1(C)O[C@@H]21 [Parthenolide]	130 ± 77	123 ± 43	126 ± 11	124.5 ± 0.77	108 ± 14	101 ± 3.3	93.2 ± 14	96.5 ± 20	98.3 ± 24	122 ± 28	96.6 ± 16	98.9 ± 4.2	94.9 ± 35	128 ± 21	71.5 ± 53	122 ± 3.6	114 ± 6.1	92.6 ± 2	98.6 ± 16	113 ± 13
Cc1ccc(Nc2nccc(N(C)c3ccc4c(C)n(C)nc4c3)n2)cc1S(N)(=O)=O [Pazopanib]	97 ± 39	90.5 ± 16	88.68 ± 0.85	66.1 ± 19	102 ± 15	86.8 ± 3.6	110 ± 3.6	73.8 ± 16	96.1 ± 6.7	48.9 ± 20	93.1 ± 34	49.1 ± 5.4	88.8 ± 3	52.6 ± 23	60.8 ± 12	30.5 ± 1.7	95.4 ± 1.7	95.2 ± 1.4	95 ± 15	56.8 ± 1.5
O=C(CCc1ccc(O)cc1)c1c(O)cc(O)cc1O [Phloretin]	83.2 ± 2.8	103 ± 20	127 ± 16	106.6 ± 0.71	102 ± 36	105 ± 16	96.7 ± 8.2	107 ± 15	76.3 ± 4.5	76.5 ± 1	100 ± 1.3	90.5 ± 3.9	91.1 ± 42	100 ± 55	74 ± 11	112 ± 13	104 ± 10	105 ± 7	101 ± 13	113 ± 11
